Source: patent US20050222040A1, “Vertebrate peptide modulators of lipid metabolism” (BLM Group, Inc., priority 2004, published 2005)
Non-standard residues stand in square brackets, D forms with d. No end group written: not given here. pGlu = O=C1CC[C@@H](C(=O)O)N1

System: human adipocytes
Experiment: Glycerol release assay (lipolysis) in differentiated human adipocytes
Type: cell-based
Conditions: for Percent Glycerol Release over Background / glycerol releasing activity (result in words): human adipocytes in vitro; for lipid mobilization activity of insect AKH/HTP peptides and alanine walk analogs (result in words): Example 2, Table 8 peptides; for glycerol releasing activity (result in words): 100 nanomolar, 1 micromolar and 10 micromolar
Description: Two assay methods, giving equivalent results, can be used. The results disclosed in Example 2, below, were obtained using an in vitro assay based on measurement of glycerol released into the medium. An alternative assay system, based on the release of radioisotope from adipocytes incubated overnight with 9,10 ^3H-palmitate, can also be used.
Human subcutaneous preadipocytes, obtained by liposuction (Zen-Bio, Inc. Research Triangle Park, N.C.), are cultured for 3 weeks in 96-well plates in Differentiation medium (DMEM/Hams F10 [1/1, v/v], 15 mM Hepes buffer, 3% FBS, Penicillin/Streptomycin, 33 uM Biotin 17 uM Pantothenate, 100 nM human insulin, 0.5 uM Dexamethasone, 0.2 mM IBMX, and 10 uM thiazolidinedione.
The assay based on glycerol release is performed by removing the culture medium from differentiated cells, treating the cells with 0.1 ml of the test compounds at the appropriate doses in adipocyte medium (DMEM/Hank's F-10, 15 mM HEPES buffer, 3% FBS, penicillin/streptomycin) followed by incubation at 37 degrees Celsius for 2-5 hours. Isoproterenol is used as positive control and all assays are done in triplicate. At the end of the time points, 0.1 ml of the conditioned media from each well is transferred to a well of a new plate. Glycerol is quantified using standard enzymatic methods, with absorption by oxidized quinoneimine at 540 nm. Briefly, lipolytic activity can be assayed simply by the measurement of glycerol released into the medium since glycerokinase activity is not present in adipocytes (Carpene, C., Methods in Molecular Biology 155: Adipose Tissue Protocols, 1999). Glycerol released to the medium is phosphorylated by adenosine triphosphate (ATP) forming glycerol-1-phosphate (G-1-P) and adenosine-5′-diphosphate (ADP) in the reaction catalyzed by glycerol kinase. G-1-P is then oxidized by glycerol phosphate oxidase to dihydroxyacetone phosphate (DAP) and hydrogen peroxide (H2O2). […] The increase in absorbance at 540 nm is directly proportional to glycerol concentration of the sample.

[1] = peptide concentration 1 micro M
[2] = peptide concentration 10 micro M

Row | Compound | Percent Glycerol Release over Background (peptide concentration 100 nM) | Percent Glycerol Release over Background [1] | Percent Glycerol Release over Background [2] | lipid mobilization activity of insect AKH/HTP peptides and alanine walk analogs (result in words) | glycerol releasing activity (result in words)
1 | CC(C)NCC(O)c1ccc(O)c(O)c1 (stereo not shown) [Iso, Isoproterenol, reference compound] | 213% | 262% | 206% | – | –
2 | QLNFTASW [Peptide 53] | 3.8% | 36.8% | 18.9% | – | –
3 | QLNFTASW-NH2 [Peptide 54] | 2.8% | 4.7% | 8.5% | – | –
4 | QLNFTASWG [Peptide 52] | 0.9% | 13.2% | 17% | – | –
5 | QLNFTASWG-NH2 [Peptide 72] | 18% | 11.3% | 18.9% | – | –
6 | pGlu-Leu-Asn-Phe-Ser-Thr-Gly-TrpNH2 ([pGlu]LNFSTGW-NH2; SMILES CC(C)C[C@H](NC(=O)[C@@H]1CCC(=O)N1)C(=O)N[C@@H](CC(N)=O)C(=O)N[C@@H](Cc1ccccc1)C(=O)N[C@@H](CO)C(=O)N[C@H](C(=O)NCC(=O)N[C@@H](Cc1c[nH]c2ccccc12)C(N)=O)[C@@H](C)O; listed as Schistocerca gregaria) [SEQ ID NO: 17, reference compound] | – | – | – | active | –
7 | pGlu-Leu-Asn-Phe-Thr-Ala-Ser-Trp ([pGlu]LNFTASW; listed as Homo sapiens) [Peptide 60] | – | – | – | – | no measurable activity
8 | pGlu-Leu-Asn-Phe-Thr-Ala-Ser-Trp-Gly ([pGlu]LNFTASWG; listed as Homo sapiens) [Peptide 51] | 3.8% | 24.5% | 34.9% | – | –
9 | pGlu-Leu-Asn-Phe-Thr-Ala-Ser-Trp-GlyNH2 ([pGlu]LNFTASWG-NH2; SMILES CC(C)C[C@H](NC(=O)[C@@H]1CCC(=O)N1)C(=O)N[C@@H](CC(N)=O)C(=O)N[C@@H](Cc1ccccc1)C(=O)N[C@H](C(=O)N[C@@H](C)C(=O)N[C@@H](CO)C(=O)N[C@@H](Cc1c[nH]c2ccccc12)C(=O)NCC(N)=O)[C@@H](C)O; listed as Homo sapiens) [Peptide 73] | 0% | 0.9% | 3.8% | – | low activity
10 | pGlu-Leu-Asn-Phe-Thr-Ala-Ser-TrpNH2 ([pGlu]LNFTASW-NH2; SMILES CC(C)C[C@H](NC(=O)[C@@H]1CCC(=O)N1)C(=O)N[C@@H](CC(N)=O)C(=O)N[C@@H](Cc1ccccc1)C(=O)N[C@H](C(=O)N[C@@H](C)C(=O)N[C@@H](CO)C(=O)N[C@@H](Cc1c[nH]c2ccccc12)C(N)=O)[C@@H](C)O; listed as Homo sapiens) [Peptide 55] | 1.9% | 5.7% | 13.2% | – | low activity
11 | pGlu-Leu-Asn-Phe-Thr-Pro-Asn-Trp-Gly-ThrNH2 ([pGlu]LNFTPNWGT-NH2; SMILES CC(C)C[C@H](NC(=O)[C@@H]1CCC(=O)N1)C(=O)N[C@@H](CC(N)=O)C(=O)N[C@@H](Cc1ccccc1)C(=O)N[C@H](C(=O)N1CCC[C@H]1C(=O)N[C@@H](CC(N)=O)C(=O)N[C@@H](Cc1c[nH]c2ccccc12)C(=O)NCC(=O)N[C@H](C(N)=O)[C@@H](C)O)[C@@H](C)O; listed as Locusta migratoria) [SEQ ID NO: 18, reference compound] | – | – | – | active | –
12 | pGlu-Leu-Thr-Phe-Thr-Ser-Ser-Trp-GlyNH2 ([pGlu]LTFTSSWG-NH2; SMILES CC(C)C[C@H](NC(=O)[C@@H]1CCC(=O)N1)C(=O)N[C@H](C(=O)N[C@@H](Cc1ccccc1)C(=O)N[C@H](C(=O)N[C@@H](CO)C(=O)N[C@@H](CO)C(=O)N[C@@H](Cc1c[nH]c2ccccc12)C(=O)NCC(N)=O)[C@@H](C)O)[C@@H](C)O; listed as Manduca sexta) [SEQ ID NO: 23, reference compound] | – | – | – | active | –
13 | pGlu-Val-Asn-Phe-Ser-Pro-Gly-Trp-Gly-ThrNH2 ([pGlu]VNFSPGWGT-NH2; SMILES CC(C)[C@H](NC(=O)[C@@H]1CCC(=O)N1)C(=O)N[C@@H](CC(N)=O)C(=O)N[C@@H](Cc1ccccc1)C(=O)N[C@@H](CO)C(=O)N1CCC[C@H]1C(=O)NCC(=O)N[C@@H](Cc1c[nH]c2ccccc12)C(=O)NCC(=O)N[C@H](C(N)=O)[C@@H](C)O; listed as Blaberus discoidalis) [SEQ ID NO: 19, reference compound] | – | – | – | active | –
